Data: US20090030079A1 (priority 2007, published 2009)
Where two headings read alike, the source gives them in different places.

Experiments:
[1] = Co^2+, cited from earlier work
[2] = Cd^2+, cited from earlier work
[3] = Ag^1+; cited from earlier work
[4] = Pb^2+, cited from earlier work
[5] = Cu^2+, cited from earlier work
[6] = Decorporation of Polonium-210: tissue distribution of IV administered Po-210 in rats; format: in vivo, Wistar-Han rats; settings: for % Reduction of Po-210 vs Po-210 Control / effect on polonium-210 level (in words): oral 15 mg/kg x 5, day 6; for Po-210 dpm/gm for animal group: single IV Po-210 approx. 90 kBq, oral 15 mg/kg every 24 h x 5, sacrifice day 6
Description: The digested sample was diluted with distilled water to reduce the nitric acid to approximately 1 M. An aliquot of the resulting solution was added to Ultima Gold XR liquid scintillation cocktail (Packard BioScience, Meriden, Conn.), counted and corrected for possible quenching.

[7] = Hg^2+, cited from earlier work
[8] = Mn^2+; cited from earlier work
[9] = Ni^2+, cited from earlier work
[10] = Zn^2+, cited from earlier work
[11] = Decorporation of Cobalt-60: tissue distribution and excretion of IV administered Co-60 in rats; format: in vivo, Male Wistar-Han rats; settings: single oral dose 15 mg/kg; for Co-60 Dose % for animal group: single IV Co-60 14 KBq, 48 hr post exposure
Description: Materials. Chloride stock solution of ^60Co as ^60CoCl2 was diluted with sterile saline solution to adjust to the desired activity and used for the IV dosing. Activity of the dosing solution was determined using automated Wallac 1480 (Perkin Elmer) gamma counter equipped with 3 inch NaI(TI) crystal shielded detector.
Animals. Male Wistar-Han rats were obtained from Charles River Breeding Laboratory (Raleigh, N.C.) with indwelling jugular vein cannula. Animals were provided food and water ad libitum during acclimatization. The light cycle was 12 hour light/12 hour dark and relative humidity and temperature maintained at 50±15% and 22±2° C. All animal use protocols were approved by the Institutional Animal Care and Use Committee at Battelle, Pacific Northwest Division and studies were performed according to the “Guide for the Care and Use of Laboratory Animals” (National Research Council, Washington D.C., 1996).
Dosing regimen. Animals were restricted from food overnight prior to exposure. At the time of exposure, groups of animals (N=6) received a single intravenous (IV) injection (0.2 mL) of ^60Co solution at 14.0±0.6 KBq dose in sterile saline via an indwelling jugular vein cannula. […] The actual doses delivered were calculated based on the individual animal weights (Table 3). One group of animals was dosed with the radionuclide without subsequent administration of the chelation material to serve as control group. Following dosing, animals were placed in Nalgene metabolism cages for separate collection of urine and feces. […] Animals were sacrificed 48 hr post radionuclide administration. At sacrifice, blood and tissues (liver, kidney, spleen, gastrointestinal tract, muscle, bone, bone marrow, and lung) were collected, weighed and counted for radioactivity using a Wallac 1480 gamma counter. Gamma count data were normalized to percent administered dose after adjusting the grams of tissue collected for total organ mass.
Data statistical evaluation. Each data group was subjected to Dixon's Q-test to evaluate for potential outliers. In this test Q parameter of 0.625 (N=6, 95% confidence level, a=0.05) was used (1). For each tissue, a preliminary F-test (95% confidence level, a=0.05) for the equality of variances of the control and each treatment group was performed using Excel software. If the calculated probability p value was less than 0.05, the variances were assumed to be not equal. Based on this information, “T-test: Two-Sample Assuming Unequal Variances” or “T-test: Two-Sample Assuming Equal Variances” (95% confidence level, a=0.05) was performed using Excel software. The calculated p-value less than 0.05 provides evidence to reject the null hypothesis of equal means. The obtained statistical parameters listed in Table 4 served as guidelines for data evaluation (Table 5; calculation assumes that total skeleton, blood, or muscle is approximately 7.3, 6, or 40% of the body weight of the animal, respectively; Co-60 in skeleton is calculated based on the femur data—R. P. Brown, M. D. Delp, S. L. Undstedt, L. R. Rhomberg, and R. P. Beliles, Physiological Parameter Values for Physiologically Based Pharmacokinetic Models. Toxicology and Industrial Health, 1997, 13(4): 407-484).

Compound: NCCNCCNCCN [Trientine, N,N′-bis (2-aminoethyl)-1,2-ethanediamine]
- binding stability constant (log K) [1]: 10.9
- binding stability constant (log K) ([1]; listed as trientine): fairly strong
- binding stability constant (log K) [2]: 10.6
- binding stability constant (log K) ([2]; listed as trientine): fairly strong
- binding stability constant (log K) [3]: 7.5
- binding stability constant (log K) [4]: 10.4
- binding stability constant (log K) ([4]; listed as trientine): fairly strong
- binding stability constant (log K) [5]: 20.05 (Cu^2+)
- binding stability constant (log K) ([5]; listed as trientine): very strongly
- % Reduction of Po-210 vs Po-210 Control ([6]; Blood): 0%
- Po-210 dpm/gm for animal group ([6]; Blood): 33273 ± 7289 dpm/gm
- Po-210 dpm/gm for animal group ([6]; Femur): 22415 ± 2148 dpm/gm
- % Reduction of Po-210 vs Po-210 Control ([6]; Kidney): 0%
- Po-210 dpm/gm for animal group ([6]; Kidney): 187883 ± 15839 dpm/gm
- % Reduction of Po-210 vs Po-210 Control ([6]; Liver): 14%
- effect on polonium-210 level (in words) ([6]; Liver): reduced
- Po-210 dpm/gm for animal group ([6]; Liver): 120883 ± 21221 dpm/gm
- % Reduction of Po-210 vs Po-210 Control ([6]; Lung): 11%
- Po-210 dpm/gm for animal group ([6]; Lung): 74512 ± 22281 dpm/gm
- Po-210 dpm/gm for animal group ([6]; Spleen): 269303 ± 47082 dpm/gm
- % Reduction of Po-210 vs Po-210 Control ([6]; femur): 15%
- effect on polonium-210 level (in words) ([6]; femur): reduced
- % Reduction of Po-210 vs Po-210 Control ([6]; spleen): 36%
- effect on polonium-210 level (in words) ([6]; spleen): reduced
- binding stability constant (log K) [7]: 24.5
- binding stability constant (log K) ([7]; listed as trientine): very strongly
- binding stability constant (log K) [8]: 4.90
- binding stability constant (log K) [9]: 13.8
- binding stability constant (log K) ([9]; listed as trientine): very strongly
- binding stability constant (log K) [10]: 12
- binding stability constant (log K) ([10]; listed as trientine): fairly strong
- Co-60 Dose % for animal group ([11]; Blood): 0.18 ± 0.08%
- % Reduction of Co-60 vs Co-60 Control ([11]; Blood, 48 hr): −98%
- Co-60 Dose % for animal group ([11]; Bone Marrow): Below detection
- Co-60 Dose % for animal group ([11]; Intestine): 0.98 ± 0.23%
- % Reduction of Co-60 vs Co-60 Control ([11]; Intestine, 48 hr): 44%
- Co-60 Dose % for animal group ([11]; Kidney): 0.62 ± 0.04%
- % Reduction of Co-60 vs Co-60 Control ([11]; Kidney, 48 hr): 13%
- Co-60 Dose % for animal group ([11]; Liver): 2.00 ± 0.47%
- % Reduction of Co-60 vs Co-60 Control ([11]; Liver, 48 hr): 0%
- Co-60 Dose % for animal group ([11]; Lung): 0.13 ± 0.05%
- % Reduction of Co-60 vs Co-60 Control ([11]; Lung, 48 hr): 0%
- Co-60 Dose % for animal group ([11]; Muscle): 1.13 ± 0.24%
- % Reduction of Co-60 vs Co-60 Control ([11]; Muscle, 48 hr): 0%
- Co-60 Dose % for animal group ([11]; Spleen): 0.058 ± 0.013%
- % Reduction of Co-60 vs Co-60 Control ([11]; Spleen, 48 hr): 0%
- Co-60 Dose % for animal group ([11]; Stomach): 0.072 ± 0.012%
- % Reduction of Co-60 vs Co-60 Control ([11]; Stomach, 48 hr): 0%
- Co-60 Dose % for animal group ([11]; Total Skeleton (from femur data)): 0.41 ± 0.22%
- % Reduction of Co-60 vs Co-60 Control ([11]; Total Skeleton, 48 hr): 35%
- effect on blood levels of Co-60 ([11]; 48 hr): elevated
- effect on fecal elimination of Co-60 ([11]; day 1 post exposure): decreased
- effect on urinary elimination of Co-60 ([11]; day 1 post exposure): noticeably enhanced
- effect on total Co-60 excretion (urine and feces) ([11]; monitored 2 days, not statistically significant, 15 mg/kg): appeared to accelerate
